# Measured values: US12599645B2, “Antibodies which bind to lysophosphatidic acid receptor 1 (LPAR1)” (DJS ANTIBODIES LTD, priority 2021, dated 2026)
# Read-outs that look alike come from different tables or passages of the source.
# B1: Antibody 12: LCDR2 mutation T56D; VH SEQ ID NO: 36, VL SEQ ID NO: 38 (antibody, V domains shown)
# VH: QVQLVQSGSELKKPGASVKVSCKASGYTFTSSGISWVRQAPGQGLEWMGEILPRSGYTNYNQGFTGRFVFSADKSVSTAYLQISSLKAEDTAVYYCARDFKGGRYAMDYWGQGTTVTVSS
# VL: SIQMTQSPSSLSASVGDRVTITCQASQSVRYNVAWYQQKPGKAPKLLIYYASNRYDGVPSRFSGSGSGTDFTFTISSLQPEDIATYFCQHHYSSPLTFGGGTKLEIK
# Columns and labels:
# diabetic nephropathy = conditions: 8 weeks, cited from earlier work
# [1] = system: renal fibrosis after UUO surgery; test: Unilateral ureteral obstruction (UUO) efficacy model of renal fibrosis; format: in vivo, Hartley guinea pigs
# Experimental: Unilateral ureteral obstruction (UUO) is a well-characterized disease model for renal fibrosis. The UUO model encompasses key pathophysiological features of chronic kidney disease; tubular necrosis and inflammatory cell infiltration within a relatively short period.
# Two unilateral ureteral obstruction (UUO) model efficacy studies were carried out in six-week old female Hartley guinea pigs. On Day 0, UUO surgery was performed. BMS-986020 was administered orally at a dose level of 30 mg/kg in a volume of 5 mL/kg twice daily at from Day −1 to 9. Isotype control and anti-LPAR1 antibody was intraperitoneally administered at a dose level of 6 mg/kg (low) or 20 mg/kg (high) in a volume of 10 mL/kg at Day −1, Day 0, Day 3 and Day 6. The viability, clinical signs, behaviour and individual body weight was monitored daily.
# The animals were sacrificed at Day 10. The ligated left kidney and right kidney weight were measured at sacrifice.
# Hydroxyproline is an amino acid, making up around 14% of collagen and acts as an important indicator of the severity of fibrosis. To quantify kidney hydroxyproline content, frozen posterior right section of left kidney samples were processed by an alkaline-acid hydrolysis method. AC buffer (2.2M acetic acid/0.48M citric acid) was added to the samples, followed by centrifugation to collect the supernatant. A standard curve of hydroxyproline was constructed with serial dilutions of trans-4-hydroxy-L-proline (Sigma-Aldrich, USA) starting at 16 μg/mL. The prepared samples and standards were mixed with chloramine T solution (Nacalai Tesque Inc., Japan) and incubated for 25 minutes at room temperature. The samples were then mixed with Ehrlich's solution and heated at 65° C. for 20 minutes to develop the colour. After samples were cooled on ice and centrifuged to remove precipitates, the optical density of each supernatant was measured at 560 nm. The concentrations of hydroxyproline were calculated from the hydroxyproline standard curve. Protein concentrations of kidney samples were determined using a BCA protein assay kit (Thermo Fisher Scientific, USA) and used to normalize the calculated hydroxyproline values. Kidney hydroxyproline contents were expressed as μg per mg protein.
# The left kidney was fixed in Bouin's solution and embedded in paraffin. For PAS staining, sections were cut from paraffin blocks and stained with Schiff's reagent (FUJIFILM Wako pure chemical corporation, Japan) according to the manufacturer's instructions. To visualize collagen deposition, kidney sections were stained using picro-Sirius red solution (FUJIFILM Wako pure chemical corporation). For quantification of interstitial and medulla fibrosis area, bright field images in the corticomedullary region were captured using a digital camera (DFC295) at 200-fold magnification, and the positive areas in 5 fields/section were measured using ImageJ software (National Institute of Health, USA).
# [2] = system: idiopathic pulmonary fibrosis; conditions: cited from earlier work
# [3] = system: hepatic bile acid efflux transporters (e.g., BSEP, MRP3 and MRP4); conditions: cited from earlier work
# LPAR1 [4] = target: T1, LPAR1 (Homo sapiens, UniProt Q92633); test: BRET assay (G protein activation and βArrestin 2 biosensors); format: cell-based; set-up: expressed in transfected cells; host or cells: HEK293 (transient, PEI)
# T1 sequence (Q92633 whole entry): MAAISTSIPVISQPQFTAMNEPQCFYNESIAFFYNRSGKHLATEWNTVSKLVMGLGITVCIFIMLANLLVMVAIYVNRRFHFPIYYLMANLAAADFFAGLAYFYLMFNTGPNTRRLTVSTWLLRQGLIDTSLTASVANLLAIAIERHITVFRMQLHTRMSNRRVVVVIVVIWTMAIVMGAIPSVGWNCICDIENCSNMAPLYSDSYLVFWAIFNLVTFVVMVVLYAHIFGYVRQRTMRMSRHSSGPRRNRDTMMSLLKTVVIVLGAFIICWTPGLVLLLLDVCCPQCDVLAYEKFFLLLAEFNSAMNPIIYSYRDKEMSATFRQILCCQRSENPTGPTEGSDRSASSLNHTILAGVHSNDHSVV
# Experimental: Using polyethylenimine (PEI) transfection agent at a 3:1 ratio, HEK293 cells were co-transfected in suspension with hLPAR1 and one of the following biosensors: G protein activation sensors (Gαi2, Gα13, and Gαq) and the βArrestin 2-PM recruitment biosensor (+GRK2). Cells were directly seeded in 96-well plates immediately following transfection at a density of 35,000 cells/well. 48 hours post-transfection, BRET experiments were performed in both agonist and allosteric/antagonist mode. Using a plate washer, culture medium was aspirated and replaced with 30 μl of Hank's Balanced Salt Solution buffer (HBSS). Plates were equilibrated at room temperature for 60 minutes. For agonist testing, serial dilutions of the antibodies were performed in PBS and then added to each well. Antibodies were assayed at 12 concentrations in technical duplicates. Small molecules were added to each relevant well. Small molecules were assayed at 22 concentrations with each biosensor. Cells were then incubated with the antibodies or small molecules at room temperature for 60 or 10 minutes, respectively. 10 μl of 10 μM e-Coelenterazine Prolume Purple (Nanolight) was then added to each well. Cells were incubated at room temperature for an additional 10 minutes. BRET readings were then collected with a 0.4 sec integration time on a plate reader (filters: 400 nm/70 nm, 515 nm/20 nm). For allosteric testing (after agonist testing), an EC75 of the endogenous ligand (oleoyl-LPA) was added to each well already containing antibody or small molecule. Cells were incubated at room temperature for an additional 10 minutes. BRET readings were then collected with a 0.4 sec integration time on a plate reader (filters: 400 nm/70 nm, 515 nm/20 nm). BRET signals were determined by calculating the ratio of light emitted by GFP-acceptor (515 nm) over light emitted by luciferase-donor (400 nm). All BRET ratios were standardized with pre-established BRET values for positive and negative controls. The standardized BRET ratio is referred to as universal BRET (uBRET). Resulting dose-response curves were fitted using the three- or four-parameter logistic non-linear regression model in GraphPad Prism 9.
# The inhibition characteristics of Antibody 12 were investigated by Bioluminescence Resonance Energy Transfer (BRET, method 1.15) and compared to a small molecule LPAR1 inhibitor of the prior art (BMS-986020), see FIG. 13. The upper lines are values recorded with LPA present and the lower lines are values recorded with LPA not present. […] This can only happen if the ligand (LPA) is also interacting with the receptor at the same time to enable some signalling. […]
# [5] = set-up: species or system Sprague Dawley rats; conditions: rat, in vivo, iv, 3 mg/kg
# Experimental: The rat pharmacokinetics study was carried out in male Sprague Dawley rats (275-325 g). Rats received an IV slow bolus (3 mg/kg) of test antibody. Blood samples were taken at the following time-points: pre-dose, 2 min, 1 hour, 3 hours, 6 hours, 24 hours, 48 hours, 96 hours, 7 days, 14 days and 21 days after dosing. For each animal and for each blood sampling, 200 μL venous blood was obtained from the sublingual vein under isoflurane anaesthesia in K2EDTA vials. The blood samples were gently mixed, placed immediately on crushed ice and centrifuged within 30 min of sampling at approximately 1500×g for approximately 10 min at approximately 4° C. For each blood sample, the resulting plasma was separated into 2 aliquots of 30 μL and transferred, using disposable plastic material, into polypropylene tubes with conical bottom and stored at −80° C. until analysis by capture ELISA. Plates were coated overnight with 1 μg/mL capture IgG before washing and blocking with 3% (w/v) milk the next morning for 2 hours. […] Absorbance was measured on a plate reader at 450 nm. Antibody concentrations were calculated using interpolation off a standard curve constructed for each individual test IgG in Prism 5 (GraphPad Software, CA, USA). Interpolated data was analysed using Phoenix WinNonlin® version 8.1 (Certara USA, Inc., Princeton, NJ) to extract relevant PK parameters. […]
# Irrelevant GPCR = test: Transient-transfection CIFAT, irrelevant GPCR control (fixed and live cells); format: binding; conditions: cells expressing irrelevant GPCR
# Experimental: (§1) Anti-LPAR1 antibodies of the invention were tested alongside commercially available anti-LPAR1 antibodies in the transient-transfection CIFAT assay for live cells (method 1.11) and in the transient-transfection CIFAT assay for fixed cells (method 1.11).
# The results are shown in FIGS. 11 and 12, wherein the scale bar represents 100 μm.
# LPAR1 [6] = target: T1, LPAR1; test: LPAR1 binding affinity during discovery and affinity maturation, method not stated; set-up: expressed in transfected cells; conditions: stated in words
# LPAR1 [7] = target: T1, LPAR1; test: Transient-transfection CIFAT, live cells; format: binding; set-up: HA; expressed in transfected cells; host or cells: CHO-K1 (transient, PEI); conditions: 5 μg/mL or 20 μg/mL
# Experimental: CHO-K1 cells are seeded in multi well plates at 20,000 cells per 200 μL full growth medium and incubated for 24 hours at 37° C. In a sterile tube, 0.0309 uL/well PEI is diluted into 10 uL/well transfection medium (DMEM supplemented with 2 mM L-glutamine and Penicillin-Streptomycin). The diluted PEI is added to 100 ng/well DNA, before mixing immediately and incubating the mixture for 10 minutes at room temperature. 200 μL/well full growth medium is added to the PEI-DNA mixture, then medium in wells is taken off and 200 ul full growth medium/PEI/DNA mixture is added in the wells of the adherent cell plate. The plate is incubated for 24 hours at 37° C. The medium is discarded and replaced with 200 μL full growth medium. The plate is incubated for 24 hours at 37° C. Medium is removed from the wells and the cells incubated with primary antibody at varying concentrations for 75 minutes at 37° C. After washing and cell fixation with 4% PFA, the binding of the antibodies is detected using a goat anti-human detection antibody, incubated for 1 hour at room temperature. Fluorescence at 488 nm is measured.
# CHO-K1 cells were seeded in clear 96-well plates at 20,000 cells per 200 μL full growth medium and incubated for 24 hours at 37° C. The following day, in a sterile tube, 0.0309 uL/well PEI (Generon, MW 160,000) was diluted into 10 uL/well transfection medium (DMEM supplemented with 2 mM L-glutamine and Penicillin-Streptomycin). The diluted PEI was added to 100 ng/well DNA encoding the target protein (human LPAR1 (SEQ ID NO: 62) unless otherwise stated), before vortexing immediately and incubating the mixture for 10 minutes at room temperature. 200 μL/well full growth medium was added to the PEI-DNA mixture, then medium in wells was taken off and 200 ul full growth medium/PEI/DNA mixture was added in the wells of the adherent cell plate. The plate was incubated for 24 hours at 37° C. The next day, the medium was discarded and replaced with 200 μL full growth medium. The plate was incubated for 24 hours at 37° C. The following day, medium was removed from the wells and the cells incubated with primary antibody at varying concentrations for 75 minutes at 37° C. After washing and cell fixation with 4% PFA, the binding of the antibodies was detected using a goat anti-human Alexa Fluor 488 detection antibody (Invitrogen), incubated for 1 hour at room temperature. Fluorescence at 488 nm was measured using a BMG LABTECH ClarioStar plate reader and microscopy images were taken at 10× magnification.
# as §1
# LPAR1 [8] = target: T1, LPAR1; test: Transient-transfection CIFAT, fixed/permeabilised cells; format: binding; set-up: HA; expressed in transfected cells; host or cells: CHO-K1 (transient, PEI); conditions: 5 μg/mL
# [9] = Study 1, BMS-986020 30 mg/kg oral twice daily, antibody 20 mg/kg i.p., Day 10
molecule,measurement,setting,value
Cc1noc(-c2ccc(-c3ccc(CC(=O)O)cc3)cc2)c1NC(=O)O[C@H](C)c1ccccc1 [AM095],"24 h albuminuria vs untreated controls, reduction","diabetic nephropathy; STZ-induced (early disease model), Lee J H et al. (2019)",~30% reduction
Cc1noc(-c2ccc(-c3ccc(C4(C(=O)O)CC4)cc3)cc2)c1NC(=O)O[C@H](C)c1ccccc1 [BMS-986020],cortical fibrosis (histological picrosirius staining),[1]; [9],reduced cortical fibrosis
same,kidney hydroxyproline,[1]; [9],No observable difference
same,histological picrosirius staining,[1]; Study 2,No observable difference
same,kidney hydroxyproline,"[1]; Study 2, BMS-986020 30 mg/kg oral vs vehicle, antibody 20 mg/kg (high) i.p. vs isotype antibody",trend towards reduced hydroxyproline
same,hepatobiliary toxicity,"[2]; compound-specific, not mediated via antagonism of LPAR1",off-target hepatobiliary toxicity
same,efficacy in patients with idiopathic pulmonary fibrosis,"[2]; human, in vivo",showed efficacy
same,binding to hepatic bile acid efflux transporters,[3],off-target binding
same,mode of inhibition,LPAR1 [4]; G13 biosensor,competitive inhibitor
same,inhibition,"LPAR1 [4]; interaction of G-protein G13 with the GPCR, in the presence of LPA",100%
Cc1noc(-c2ccc(CSCCC(=O)O)cc2)c1NC(=O)OC(C)c1ccccc1Cl (stereo not drawn) [Ki16425],"24 h albuminuria vs untreated controls, reduction","diabetic nephropathy; db/db (moderate model), Li et al. (2017)",~30%
B1,mean Cmax,[5],217.5 µg/mL
same,Irrelevant GPCR cell staining,Irrelevant GPCR,Irrelevant GPCR-No significant cell staining
same,binding affinity for LPAR1,LPAR1 [6],minimal effect on affinity
same,mode of inhibition,LPAR1 [4]; G13 biosensor,acting allosterically
same,inhibition with LPA present compared to the system where LPA is absent,"LPAR1 [4]; G13 biosensor, even at high concentrations",does not deliver equivalent inhibition
same,LPAR1 live cell staining,LPAR1 [7],LPAR1-Significant fixed and live cell staining
same,LPAR1 fixed cell staining,LPAR1 [8],LPAR1-Significant fixed and live cell staining
